Results reported in patent US20020026053A1, “Novel 3-(substituted) -2- indolinones compounds and use thereof as inhibitors of protein kinase activity” (priority 1997, published 2002).

What follows are compounds tested against T1, EGFR (Homo sapiens, UniProt P00533) (assay: Biochemical EGFR Assay). Settings: protocol P.167.
T1 construct: endogenous in cells; host or cells: A431 cells (lysate, captured with SUMO1 anti-EGFR antibody)
T1 sequence (P00533 25-1210): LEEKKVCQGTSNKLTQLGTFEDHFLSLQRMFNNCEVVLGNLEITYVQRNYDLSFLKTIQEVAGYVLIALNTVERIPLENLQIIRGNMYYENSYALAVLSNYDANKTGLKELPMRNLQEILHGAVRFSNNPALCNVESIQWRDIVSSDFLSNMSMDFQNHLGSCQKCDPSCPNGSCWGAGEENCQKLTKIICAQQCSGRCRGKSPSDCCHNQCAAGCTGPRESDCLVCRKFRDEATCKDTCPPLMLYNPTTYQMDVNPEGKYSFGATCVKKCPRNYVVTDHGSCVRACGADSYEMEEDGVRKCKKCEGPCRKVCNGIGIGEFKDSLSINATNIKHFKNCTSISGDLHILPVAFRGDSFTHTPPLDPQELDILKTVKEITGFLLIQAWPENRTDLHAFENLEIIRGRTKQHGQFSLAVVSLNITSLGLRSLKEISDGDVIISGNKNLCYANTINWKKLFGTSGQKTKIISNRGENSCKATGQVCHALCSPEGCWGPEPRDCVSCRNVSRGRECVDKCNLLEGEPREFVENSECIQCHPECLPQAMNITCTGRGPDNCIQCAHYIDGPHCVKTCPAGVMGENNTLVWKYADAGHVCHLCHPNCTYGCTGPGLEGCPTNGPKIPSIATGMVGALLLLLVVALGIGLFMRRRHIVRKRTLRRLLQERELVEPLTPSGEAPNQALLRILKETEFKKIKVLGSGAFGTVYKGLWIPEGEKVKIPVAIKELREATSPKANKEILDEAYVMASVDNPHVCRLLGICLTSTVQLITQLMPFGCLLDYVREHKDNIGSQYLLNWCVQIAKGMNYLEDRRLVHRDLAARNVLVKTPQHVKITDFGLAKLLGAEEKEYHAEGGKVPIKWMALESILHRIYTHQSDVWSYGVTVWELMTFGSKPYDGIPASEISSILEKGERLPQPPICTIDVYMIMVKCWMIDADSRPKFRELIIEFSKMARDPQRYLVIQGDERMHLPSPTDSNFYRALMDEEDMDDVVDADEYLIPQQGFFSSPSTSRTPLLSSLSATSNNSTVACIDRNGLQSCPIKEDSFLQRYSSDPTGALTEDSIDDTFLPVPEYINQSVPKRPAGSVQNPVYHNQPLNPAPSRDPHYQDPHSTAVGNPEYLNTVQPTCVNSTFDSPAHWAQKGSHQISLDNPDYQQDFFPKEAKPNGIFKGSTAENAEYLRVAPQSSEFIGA
Parameters: concentration or dose not given beside the values
Method in brief: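 Readout is ABTS absorbance at 410 nm after anti-phosphotyrosine and HRP-antibody detection of EGFR autophosphorylation. The kinase was immunocaptured from A431 lysate, exposed 30 min to test compound diluted 1:10 in TBS, then phosphorylated for 5 min with ATP/MnCl2 before an EDTA stop.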
`Cc1c(Br)cc(Br)c2c1C(=Cc1cc(O)c(O)c(O)c1)C(=O)N2` [10739/H07] was tested, and the “Biochem EGFR % Inhibition (P.167)” value was 10.9%. `COc1ccc(Oc2cccc(C=C3C(=O)Nc4c(Br)cc(Br)c(C)c43)c2)cc1` [10739/H08] was tested, and the “Biochem EGFR % Inhibition (P.167)” value was −28.5%. In the case of `Cc1c(Br)cc(Br)c2c1C(=Cc1ccoc1)C(=O)N2` [10739/H10], the “Biochem EGFR % Inhibition (P.167)” value was −26.6%.
